Some test systems named below: SR leukemia; OVCAR-8 ovarian; HT29 colon; HCC-2998 colon; HOP-92 NSCLC; EKVX NSCLC; IGROV1 ovarian; MOLT-4 leukemia; UACC-257 melanoma; K-562 leukemia.
Test in all cases: DTP human tumour cell line panel, 48 h

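Step 1: Grow cells in 96-well plates. Step 2: Expose to compound for 48 hours at 5 concentrations. Step 3: Interpolate endpoints linearly; if unreached, use highest concentration. TGI marks complete inhibition of growth.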 Where a SMILES comes first, the peptide text is derived from it. [ ]: non-standard residue; d: D form. The star is where a group is joined. ξ: configuration not given here. ξPhe(4-NO2) = NC(Cc1ccc([N+](=O)[O-])cc1)C(=O)O; Boc = CC(C)(C)OC(=O)*; OBn = c1ccc(CO*)cc1

In the case of `Cn1cc2c(=O)n3ncn(-c4ccc(Br)cc4)c3nc2n1`, the concentration for total growth inhibition (TGI) in the test with SR leukemia, in the test on OVCAR-8 ovarian, with HT29 colon, with HCC-2998 colon, in the test on HOP-92 NSCLC and in the test with EKVX NSCLC was above 100 µM in each case. Moreover, the TGI with IGROV1 ovarian, in the test on MOLT-4 leukemia, in the test with UACC-257 melanoma and in the test on K-562 leukemia was above 100 µM throughout.
As for `CC(NC(=O)/C(C#N)=C/c1ccc2[nH]ccc2c1)c1ccccc1` (centres undefined), the TGI in the test with SR leukemia turned out to be 83.7 µM; in the test with OVCAR-8 ovarian, 48.8 µM; with HT29 colon it was 31.6 µM; with HCC-2998 colon, 34 µM; in the test with HOP-92 NSCLC, 33.5 µM; in the test with EKVX NSCLC, 50.4 µM. Also, the TGI was 33.1 µM in the test with IGROV1 ovarian, 52.3 µM in the test on MOLT-4 leukemia, 38.7 µM in the test with UACC-257 melanoma and above 77.9 µM in the test with K-562 leukemia.
For `NC(=O)c1csc(CCCCCCc2nc(C(N)=O)cs2)n1`, the TGI in the test with SR leukemia was above 100 µM; with OVCAR-8 ovarian, above 100 µM; in the test on HT29 colon, above 59.8 µM; with HCC-2998 colon, above 100 µM; in the test on HOP-92 NSCLC, above 100 µM; in the test with EKVX NSCLC, above 100 µM. The TGI was above 100 µM in the test on IGROV1 ovarian, above 100 µM in the test with MOLT-4 leukemia, above 100 µM in the test on UACC-257 melanoma and above 62.8 µM in the test on K-562 leukemia.
As to `CC(=O)NCC1(c2ccccc2)CCN(CC2COc3ccccc3O2)CC1` (centres undefined), the TGI with SR leukemia, in the test with OVCAR-8 ovarian, in the test with HT29 colon, with HCC-2998 colon, in the test with EKVX NSCLC and in the test on IGROV1 ovarian was above 100 µM each time. Moreover, the TGI in the test on MOLT-4 leukemia, with UACC-257 melanoma and in the test on K-562 leukemia was above 100 µM in each case.
Consider `CC1(C)C=C(/C=N/Nc2ccc(Br)cc2)C(C#N)=C(O)C1(C#N)C#N`, for which the total growth inhibition concentration (TGI) was 75.5 µM in the test with SR leukemia; above 100 µM in the test on OVCAR-8 ovarian; above 100 µM in the test with HT29 colon; above 100 µM in the test on HCC-2998 colon; 65.7 µM with HOP-92 NSCLC; above 100 µM with EKVX NSCLC. The TGI with IGROV1 ovarian was above 100 µM; with MOLT-4 leukemia it was 89.8 µM; in the test on UACC-257 melanoma, above 100 µM; with K-562 leukemia, above 100 µM.
`C[C@@H]1C[C@@H](O)[C@@]2(O)C13CC(=O)OC(C3)[C@@H](C)[C@@]2(C)CO` (some centres undefined): the total growth inhibition concentration (TGI) in the test on SR leukemia, in the test with OVCAR-8 ovarian, with HT29 colon, in the test with HCC-2998 colon, in the test on HOP-92 NSCLC and in the test with EKVX NSCLC was above 100 µM each time. Further, the TGI with IGROV1 ovarian, in the test with MOLT-4 leukemia, in the test on UACC-257 melanoma and in the test with K-562 leukemia was above 100 µM throughout.
Turning to `C=C(C)[C@@H]1CC[C@@H](C)[C@](O)([C@@H]2C[C@@H]([C@H](COC(=O)c3ccccc3)OC(=O)c3ccccc3)OC2=O)C1`, the TGI in the test on SR leukemia, in the test with OVCAR-8 ovarian, in the test on HT29 colon, in the test with HCC-2998 colon, in the test on EKVX NSCLC and in the test with IGROV1 ovarian was above 100 µM each time. The TGI in the test on MOLT-4 leukemia, with UACC-257 melanoma and with K-562 leukemia was above 100 µM throughout.
With `COc1ccc(C2CC(=O)Oc3ccccc3O2)cc1` (centres undefined), the concentration for total growth inhibition (TGI) in the test on SR leukemia, in the test on OVCAR-8 ovarian, in the test with HT29 colon, with HCC-2998 colon, in the test on EKVX NSCLC and in the test with IGROV1 ovarian was above 100 µM each time. The TGI in the test on MOLT-4 leukemia, with UACC-257 melanoma and in the test with K-562 leukemia was above 100 µM in each case.
In the case of `COc1ccc(-c2c3c(n(C4OC(CO)C(O)C(O)C4O)c(=S)c2C#N)CC(C)(C)CC3=O)cc1` (centres undefined), the TGI in the test with SR leukemia, with OVCAR-8 ovarian, in the test on HT29 colon, with HCC-2998 colon, in the test with HOP-92 NSCLC and in the test with IGROV1 ovarian was above 100 µM each time. The TGI in the test with MOLT-4 leukemia, with UACC-257 melanoma and with K-562 leukemia was above 100 µM each time.
Regarding `CS(=O)(=O)c1[nH]nc2[nH]c(=O)[nH]c(=O)c12`, the TGI with SR leukemia, in the test with OVCAR-8 ovarian, in the test on HT29 colon, in the test with HCC-2998 colon, in the test with HOP-92 NSCLC and in the test on EKVX NSCLC was above 10 µM throughout. Further, the TGI in the test with IGROV1 ovarian, with MOLT-4 leukemia and with UACC-257 melanoma was above 10 µM in each case.
Consider `CC(=O)c1c(O)ccc2c1CC(CC=O)O2` (centres undefined), for which the total growth inhibition concentration (TGI) in the test on SR leukemia, in the test on OVCAR-8 ovarian, with HT29 colon, in the test on HCC-2998 colon, with HOP-92 NSCLC and in the test with IGROV1 ovarian was above 100 µM in each case. In addition, the total growth inhibition concentration (TGI) in the test with MOLT-4 leukemia, in the test with UACC-257 melanoma and in the test on K-562 leukemia was above 100 µM throughout.
On to `CC(=O)OCC1OC(n2c3c(c(-c4ccc(Cl)cc4)c(C#N)c2=S)C(=O)CC(C)(C)C3)C(OC(C)=O)C(OC(C)=O)C1OC(C)=O` (centres undefined), for which the TGI with SR leukemia was above 100 µM; in the test on OVCAR-8 ovarian, 51.8 µM; in the test on HT29 colon, above 72.2 µM; with HCC-2998 colon, 27.9 µM; in the test on HOP-92 NSCLC it was above 100 µM; with IGROV1 ovarian it was above 100 µM. Moreover, the TGI was above 100 µM with MOLT-4 leukemia, 42.8 µM in the test with UACC-257 melanoma and above 100 µM in the test with K-562 leukemia.
For `CC1=CCC[C@@](C)(O)[C@@H]2C[C@H]3C(CSc4ccccc4)C(=O)O[C@H]3[C@@H](O2)[C@H](C)CCC1` (some centres undefined), the TGI with SR leukemia was above 100 µM; in the test on OVCAR-8 ovarian, 32.4 µM; in the test on HCC-2998 colon it was 30.3 µM; in the test with HOP-92 NSCLC it was above 100 µM; in the test with EKVX NSCLC, 63.2 µM; in the test on IGROV1 ovarian it was 85.1 µM. For the same compound, the TGI in the test on MOLT-4 leukemia is above 100 µM; with UACC-257 melanoma, 39.3 µM; with K-562 leukemia it was above 100 µM.
As to `C/C(=N\NC(=O)/C(C#N)=C\c1ccc(N(CCC#N)CCC#N)cc1)c1ccccc1`, the concentration for total growth inhibition (TGI) in the test with SR leukemia, with OVCAR-8 ovarian, in the test on HT29 colon, in the test on HCC-2998 colon, in the test on HOP-92 NSCLC and in the test on EKVX NSCLC was above 10 µM in each case. Moreover, the TGI in the test on IGROV1 ovarian, in the test with MOLT-4 leukemia and in the test on UACC-257 melanoma was above 10 µM throughout.
In the case of `CC(C)(C)OC(=O)NC(Cc1ccc([N+](=O)[O-])cc1)C(=O)NCC(=O)OCc1ccccc1` (centres undefined) (Boc-[ξPhe(4-NO2)]-Gly-OBn), the total growth inhibition concentration (TGI) is above 100 µM in the test on SR leukemia; 52.4 µM in the test with OVCAR-8 ovarian; 61.3 µM in the test on HT29 colon; 42 µM in the test with HCC-2998 colon; 65.9 µM in the test on HOP-92 NSCLC; above 100 µM in the test with EKVX NSCLC. The concentration for total growth inhibition (TGI) in the test on IGROV1 ovarian is above 100 µM; in the test on MOLT-4 leukemia, 48.1 µM; in the test on K-562 leukemia, 52.3 µM.
For `O=C1C(Cl)C(c2ccc(Cl)cc2)N1n1cnc2ccccc2c1=O` (centres undefined), the total growth inhibition concentration (TGI) is above 100 µM in the test with SR leukemia; above 100 µM with OVCAR-8 ovarian; above 100 µM with HT29 colon; above 100 µM with HCC-2998 colon; 82.4 µM with EKVX NSCLC; above 100 µM with IGROV1 ovarian. Also, the TGI in the test on MOLT-4 leukemia, in the test with UACC-257 melanoma and in the test on K-562 leukemia was above 100 µM each time.
Consider `CN1CC2=C(NC(=S)NC2c2ccc(Cl)cc2)/C(=C/c2ccc(Cl)cc2)C1` (centres undefined), for which the concentration for total growth inhibition (TGI) in the test on SR leukemia is 51.5 µM; in the test on OVCAR-8 ovarian, 37.8 µM; with HT29 colon, 34 µM; in the test on HCC-2998 colon it was 34 µM; in the test with EKVX NSCLC, 68.8 µM; in the test with IGROV1 ovarian it was 32.6 µM. Moreover, the TGI in the test with MOLT-4 leukemia was found to be 30.2 µM; with UACC-257 melanoma, 43.2 µM; in the test on K-562 leukemia, 32.7 µM.
With `COc1ccc(-c2onc(-c3c(C)cc(C)cc3C)c2C2=NCCCN2)cc1`, the concentration for total growth inhibition (TGI) in the test with SR leukemia, in the test on OVCAR-8 ovarian, in the test with HT29 colon, with HCC-2998 colon, in the test on EKVX NSCLC and in the test with IGROV1 ovarian was above 100 µM throughout. Further, the TGI is above 100 µM in the test with MOLT-4 leukemia, 70.1 µM in the test with UACC-257 melanoma and above 100 µM in the test on K-562 leukemia.
Consider `Nc1nc(Cl)cc(NCC2(CO)CCC2)n1`, for which the TGI in the test on SR leukemia, in the test on OVCAR-8 ovarian, in the test with HT29 colon, with HCC-2998 colon, with HOP-92 NSCLC and in the test on EKVX NSCLC was above 100 µM each time. Besides, the TGI in the test on IGROV1 ovarian, in the test on MOLT-4 leukemia and in the test on K-562 leukemia was above 100 µM in each case.
Turning to `CC(=N/NC(=S)Nc1c(C)n(C)n(-c2ccccc2)c1=O)/C(C)=N\NC(=S)Nc1c(C)n(C)n(-c2ccccc2)c1=O`, the total growth inhibition concentration (TGI) in the test with SR leukemia, in the test with OVCAR-8 ovarian, in the test on HT29 colon, in the test on HCC-2998 colon, in the test on HOP-92 NSCLC and in the test on EKVX NSCLC was above 100 µM each time. In addition, the TGI with MOLT-4 leukemia and in the test with UACC-257 melanoma was above 100 µM each time.

A word on the TGI: it is the concentration giving total growth inhibition. Read a high TGI as less potent growth arrest.

The record behind these values is PubChem BioAssay (NCI).
